Experimental data reported in patent publication US20080293781A1, “Salicylic Acid Derivatives” (priority 2005, published 2008).
Like-named read-outs stand apart in the source and are kept apart here.

Experiments:
[1] = Hydrolysis in human serum; assay type: in vitro ADME; conditions: 37°C, RP-HPLC, half-life of hydrolysis, read-out: Uman Serum stability (t1/2 h) (converted)
Protocol: A solution of each compound (10 mM) in acetonitrile was added to human serum (Sigma) preheated at 37° C., the final concentration of the compound was 250 μM. Resulting solution was incubated at 37±0.5° C. and at appropriate time intervals 500 μL of reaction mixture was withdrawn and added to 750 μL of acetonitrile containing 0.1% trifluoroacetic acid in order to deproteinize the serum. Sample was sonicated, vortexed and then centrifuged for 10′ at 2150 g, The clear supernatant was filtered by 0.45 μm PTFE filters (Alltech) and analysed by RP-HPLC.
(§1) The reverse-phase HPLC procedure allowed separation and quantitation of remaining salicylic ester and of salicylic acid.
(§2) HPLC analyses were performed with a HP 1100 chromatograph system (Agilent Technologies, Palo Alto, Calif., USA) equipped with a quaternary pump (model G1311A), a membrane degasser (G1379A), a diode-array detector (DAD) (model G1315B) integrated in the HP1100 system. Data analysis was done using a HP ChemStation system (Agilent Technologies). The analytical column was a Nucleosil 100-5C18 Nautilus (250×4.6 mm, 5 μm particle size) (Macherey-Nagel). The mobile phase consisting of acetonitrile/water (55/45) with 0.1% trifluoroacetic acid and the flow-rate was 1.2 mL/min. The injection volume was 20 μL (Rheodyne, Cotati, Calif.). The column effluent was monitored at 226 nm (for salicylic esters) and 240 nm (for salicylic acid) referenced against a 600 nm wavelength. Quantitation was done by comparison of peak areas with standards chromatographed under the same conditions.
(§3) The hydrolysis of all esters followed first-order kinetics; the observed pseudo-first-order rate constants (kobs) for the hydrolysis were calculated from the slopes of linear plots of the natural logarithm of percent remaining salicylic ester against time and the corresponding half-lives (t1/2) were obtained from: […]

[2] = Hydrolysis in acidic medium (pH 1); assay type: physicochemical; conditions: HCl 0.1M, 250 μM, 37°C
Protocol: A solution of each compound (10 mM) in acetonitrile was added to a HCl 0.1M preheated at 37° C., the final concentration of the compound was 250 μM. Resulting solution was maintained at 37±0.5° C. and at appropriate time intervals a 20 μL aliquote of reaction solution was analysed by RP-HPLC.
as §1, §2, §3

[3] = tested on: rats (carrageenan paw edema); assay: Anti-inflammatory activity: carrageenan-induced paw edema in conscious rats; assay type: in vivo; parameters: concentration or dose not given beside the values; conditions: rat, intragastric, paw volume 3 hours after carrageenan, mean ± SEM
Protocol: Paw edema was induced in conscious rats by subplantar injection of carrageenan (0.1 ml of 1% carrageenan suspension in carboxymethylcellulose 1%). Immediately after carrageenan injection, compounds or vehicle (CMC, 1%) were administered intragastrically to different groups of rats in a volume of 10 ml/kg. Paw volume was measured with a plethysmometer (Basile, Comerio, Italy) immediately before carrageenan injection and 3 hours afterwards. Paw edema was determined in each rat by subtracting the initial volume displacement (pre-drug) from the subsequent post-carrageenan measurement. Edema was expressed as the percent increase in paw volume relative to the preinjection value for each animal. Statistical analysis was performed with ANOVA followed by Newman Keuls test.

[4] = tested on: Male Wistar rats (glandular mucosa of the stomach); assay: Gastrolesive activity: gastric mucosal lesion index in rats; assay type: in vivo; conditions: rat, aspirin 120 mg/kg intragastric or equimolar doses, 3 hours after treatment, mean ± SEM
Protocol: Male Wistar rats, […] (Harlan, S. Pietro al Natisone, Italy) were individually housed in hanging stainless-steel cages with grid floors, at constant room temperature (25±1° C.) and humidity (60±5%), with an artificial 12:12 h light/dark cycle. They were deprived of food but not of water 24 h before the experiments. Groups of rats (n=8-10) were given aspirin (Acetylsalicylic acid) 120 mg/kg by intragastric route or equimolar doses of the compounds under study. Rats were sacrificed 3 hours after the administration of the compounds. Immediately after the sacrifice, the stomachs were removed, opened along the lesser curvature and examined for the assessment of mucosal lesions, the stomachs were laid on a flat surface under a stereomicroscope. The glandular mucosa was examined and each individual hemorrhagic lesion was measured along its greatest length (<1 mm: rating=1; 1-2 mm: rating=2; >2 mm: rating according to their greatest length). The lengths of the lesions were summed to give an overall total, designated as the lesion index, for each stomach. Statistical analysis was performed with ANOVA followed by Newman Keuls test.

[5] = biological target: T1, cyclooxygenase type-1 (COX1) (Mus musculus, UniProt P22437); assay: Inhibition of COX1 activity (PGE2 release) in resting RAW 264.7 macrophages; assay type: cell-based; conditions: for Type of inhibition “Irreversibile”: 30 min exposure, substrate applied directly or after extensive washing, difference less than 5% = irreversible
T1 construct: cyclooxygenase type-1 (COX1) activity was estimated in resting RAW 264.7 macrophages; endogenous in cells; host or cells: RAW 264.7 macrophages (resting)
T1 sequence (P22437 27-602): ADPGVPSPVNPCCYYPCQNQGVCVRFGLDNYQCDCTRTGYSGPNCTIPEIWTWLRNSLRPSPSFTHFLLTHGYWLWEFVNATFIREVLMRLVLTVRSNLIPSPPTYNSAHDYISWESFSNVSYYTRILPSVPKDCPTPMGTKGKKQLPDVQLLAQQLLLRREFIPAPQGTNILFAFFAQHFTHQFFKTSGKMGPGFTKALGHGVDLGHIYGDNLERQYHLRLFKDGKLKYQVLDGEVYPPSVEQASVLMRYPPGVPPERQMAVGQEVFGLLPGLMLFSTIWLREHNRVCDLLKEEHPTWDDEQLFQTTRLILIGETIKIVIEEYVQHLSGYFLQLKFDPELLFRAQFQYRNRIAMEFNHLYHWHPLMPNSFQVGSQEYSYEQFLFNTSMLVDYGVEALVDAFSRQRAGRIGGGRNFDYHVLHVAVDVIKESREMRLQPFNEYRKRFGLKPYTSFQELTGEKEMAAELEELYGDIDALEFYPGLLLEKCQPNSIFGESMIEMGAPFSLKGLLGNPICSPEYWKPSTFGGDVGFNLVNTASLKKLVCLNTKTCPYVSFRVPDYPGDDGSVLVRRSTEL
Protocol: The extent and type of inhibitory effects of this class of compounds on cyclooxygenase type-1 (COX1) activity was estimated in resting RAW 264.7 macrophages.
The type of inhibition (irreversible vs. reversible) was determined in resting conditions by exposing the cells to the test compounds for 30 min followed by the application of the substrate either directly or after extensive washing and then incubated for additional 15 min. The presence of residual activity (difference less than 5% vs. that recorded without washing) was taken as index of the irreversible nature of the inhibitory effects of the compounds.

[6] = biological target: T2, cyclooxygenase type-2 (COX2) (Mus musculus, UniProt Q05769); assay: Inhibition of COX2 activity (PGE2 formation) in LPS/IFNγ-induced RAW 264.7 macrophages; conditions: RAW264.7, read-out: COX2 inhibition %
T2 sequence (Q05769 18-604): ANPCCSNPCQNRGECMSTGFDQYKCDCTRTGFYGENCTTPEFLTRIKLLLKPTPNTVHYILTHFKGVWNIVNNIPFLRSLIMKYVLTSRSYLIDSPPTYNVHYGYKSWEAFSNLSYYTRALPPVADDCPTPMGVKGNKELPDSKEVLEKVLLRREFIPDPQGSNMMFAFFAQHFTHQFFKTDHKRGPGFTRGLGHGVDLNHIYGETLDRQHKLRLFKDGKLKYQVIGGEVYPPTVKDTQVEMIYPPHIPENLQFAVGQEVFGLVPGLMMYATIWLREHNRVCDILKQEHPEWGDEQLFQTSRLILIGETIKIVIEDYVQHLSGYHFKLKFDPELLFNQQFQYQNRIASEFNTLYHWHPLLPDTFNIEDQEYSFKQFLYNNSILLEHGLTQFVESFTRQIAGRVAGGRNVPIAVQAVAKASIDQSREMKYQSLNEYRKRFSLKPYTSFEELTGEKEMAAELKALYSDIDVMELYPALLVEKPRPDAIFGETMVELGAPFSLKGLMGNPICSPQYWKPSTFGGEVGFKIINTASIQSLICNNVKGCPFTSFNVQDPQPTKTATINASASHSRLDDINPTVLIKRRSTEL
Protocol: The inhibitory activity on COX2 was, instead, analyzed following the induction of this protein with 1 μg/mL of the bacterial endotoxin, lipopolysaccharide (LPS) and 10 ng/mL of interferon-γ (IFNγ) that were applied for 16 h to RAW 264.7 macrophages previously treated with 100 μM of the irreversible blocker, aspirin (ASA). Arachidonic acid served as substrate for the enzyme and the extent of PGE2 formation taken as index of COX2 activity.

[7] = 10 μM, resting RAW 264.7 macrophages, arachidonic acid 1 μM
[8] = 30 μM, resting RAW 264.7 macrophages, arachidonic acid 1 μM
[9] = RAW264.7, read-out: COX1 inhibition %

Row | Compound | half-life at 250 μM [1] [h] | pH 1 stability (% after 3 h) [2] [%] | melting point [°C] | Anti inflammatory activity Paw edema (% increase) [3] [%] | Gastrotoxicity Lesion index (mm) [4] [mm] | COX1 inhibition % [5, 7] [%] | COX1 inhibition % [5, 8] [%] | Type of inhibition “Irreversibile” [5] | inhibition at 1 µM [6] [%] | inhibition at 10 µM [6] [%] | inhibition at 30 µM [6] [%] | other results
1 | CC(=O)Oc1ccccc1C(=O)O [Acetylsalicylic acid, reference compound] | 1.37 | >90 |  | 32.95 ± 3.19 | 44.75 ± 4.66 | 27 | 53 | YES | 2 | 5 | 20 | inhibition at 1 µM ([5]; RAW264.7, 1 μM, resting RAW 264.7 macrophages, arachidonic acid 1 μM, read-out: COX1 inhibition %): < 2%
2 | O=C(CCCO[N+](=O)[O-])Oc1ccccc1C(=O)O [(2), 2-{[4-(nitrooxy)butanoyl]oxy}benzoic acid] |  |  |  |  |  | 62 | 77 | YES | 6 | 15 | 44 | inhibition at 1 µM [5, 9]: 21%
3 | O=C(Cc1ccc(OCC(CO[N+](=O)[O-])O[N+](=O)[O-])cc1)Oc1ccccc1C(=O)O (centres unmarked) |  |  | 94.5 to 95 |  |  |  |  |  |  |  |  | 
4 | CCC(=O)Oc1ccccc1C(=O)O [Propanoylsalicylic acid, reference compound] |  |  |  | 48.13 ± 6.54 | 52.00 ± 11.78 |  |  |  |  |  |  | 
5 | O=C(CCC(CO[N+](=O)[O-])O[N+](=O)[O-])Oc1ccccc1C(=O)O (centres unmarked) [Compound (6), 2-{[4,5-bis(nitrooxy)pentanoyl]oxy}benzoic acid] | 4.08 | >85 |  | 29.95 ± 7.30 | 0.50 ± 0.22 |  |  |  |  |  |  | 
6 | O=C(CCCC(CO[N+](=O)[O-])O[N+](=O)[O-])Oc1ccccc1C(=O)O (centres unmarked) [Compound (7), 2-{[5,6-bis(nitrooxy)hexanoyl]oxy}benzoic acid] | 4.87 | >85 |  | 26.19 ± 3.58 | 0.85 ± 0.64 |  |  |  |  |  |  | 
7 | O=C(CCCCO[N+](=O)[O-])Oc1ccccc1C(=O)O [(3), 2-{[5-(nitrooxy)pentanoyl]oxy}benzoic acid] |  |  |  |  |  | 66 | 77 | YES | 5 | 27 | 43 | inhibition at 1 µM [5, 9]: 11%

Second part, led by results:

Row | half-life at 250 μM [1] [h] | pH 1 stability (% after 3 h) [2] [%] | melting point [°C] | Compound | Anti inflammatory activity Paw edema (% increase) [3] [%] | Gastrotoxicity Lesion index (mm) [4] [mm] | COX1 inhibition % [5, 7] [%] | COX1 inhibition % [5, 8] [%] | Type of inhibition “Irreversibile” [5] | inhibition at 1 µM [6] [%] | inhibition at 10 µM [6] [%] | inhibition at 30 µM [6] [%] | other results
8 |  |  | 152 to 153.9 | O=C(CCOc1no[n+]([O-])c1-c1ccccc1)Oc1ccccc1C(=O)O [Compound 12, 2-[(3-{[5-oxido-4-phenyl-1,2,5-oxadiazol-3-yl]oxy}propanoyl)oxy]benzoic acid] |  |  |  |  |  |  |  |  | 
9 | 0.26 | >90 |  | O=C(CCO[N+](=O)[O-])Oc1ccccc1C(=O)O [Compound (1), 2-{[3-(nitrooxy)propanoyl]oxy}benzoic acid] |  |  |  |  |  |  |  |  | 
10 | 0.44 | >90 | 169 to 170 | O=C(CCOc1no[n+]([O-])c1S(=O)(=O)c1ccccc1)Oc1ccccc1C(=O)O [Compound (11), 2-[(3-{[5-oxido-4-(phenylsulfonyl)-1,2,5-oxadiazol-3-yl]oxy}propanoyl)oxy]benzoic acid] | 34.88 ± 4.69 | 0.50 ± 0.31 |  |  |  |  |  |  | 
